# Experimental data: patent publication US10736968B2, “Cellular signalling inhibitors, their formulations and methods thereof” (INVICTUS ONCOLOGY PVT. LTD., priority 2016, dated 2020)
# Tested on: macrophages
# Experiment: Repolarization of IL4-skewed M2 macrophages to M1-like state after washout (FACS)
# Type: cell-based
# Details: IL4 24 hours, inhibitor 4 hours, washed, fresh media 12-72 hours
# Protocol: Activity Studies of Compound of Formula I • Efficacy of BLN101 vs BLZ945 on the ability to inhibit CSF1R in vitro is studied. RAW264.7 cells are treated with BLZ945 (67 nM) or BLN101 (67 nM) for different time points, at the end of which the cells were exposed to CSF1 (10 ng/ml) for 20 min. The cells were then lysed and analyzed for phosphorylated CSF1R levels. […] Efficacy of BLN101 (in formulation AK750) vs BLZ945 on increase in iNOS expression in vitro is studied. It is observed that exposure to Tumor Conditioned Media over 24 h decreases INOS levels. Measurement of the expression of iNOS in RAW264.7 cells at different time points after treatment with B-16-tumour conditioned media followed by BLZ-945 or BLN101 (as AK750 formulation) treatment across different time points. […] Treatment of monocytes with IL4 is known to facilitate the differentiation of monocytes into macrophages. Further, activation of CSF1R skews it to a M2 phenotype. […] At different time points analysis of the cells for expression of markers CD11b+CD206+, CD11b+MHC-II+, CD11b+CD86+ and CD11b+CD80+ on the cells using flow cytometry. […] (FIG. 4). […] At different time-points, the cells are harvested and analyzed the population for M1 (MHCII+, CD86+, CD80+) or M2 (CD206+) markers using fluorescence activated cell sorting (FIG. 5d). […]
smiles,measurement,value
CNC(=O)c1cc(Oc2ccc3nc(N[C@@H]4CCCC[C@H]4O)sc3c2)ccn1 [BLZ-945],"M1 markers (MHCII+, CD86+, CD80+)",did not increase the M1 markers
same,M2 phenotype (CD206+),"at early time-points is observed, but this effect was lost at later time points"
